Usually EC50 stands for the concentration giving half of the maximal effect. By AUC is commonly meant concentration integrated over time. As a reminder, the bioavailability is dose-corrected exposure relative to a reference, in per cent. One may read the half-life as the time in which the quantity being followed falls by half. As usually defined, the Cmax is the maximum level reached in the sampled fluid or tissue.

In data set [1] the target is T1, Peroxisome proliferator-activated receptor gamma (Homo sapiens, UniProt P37231).
T1 sequence (P37231 whole entry): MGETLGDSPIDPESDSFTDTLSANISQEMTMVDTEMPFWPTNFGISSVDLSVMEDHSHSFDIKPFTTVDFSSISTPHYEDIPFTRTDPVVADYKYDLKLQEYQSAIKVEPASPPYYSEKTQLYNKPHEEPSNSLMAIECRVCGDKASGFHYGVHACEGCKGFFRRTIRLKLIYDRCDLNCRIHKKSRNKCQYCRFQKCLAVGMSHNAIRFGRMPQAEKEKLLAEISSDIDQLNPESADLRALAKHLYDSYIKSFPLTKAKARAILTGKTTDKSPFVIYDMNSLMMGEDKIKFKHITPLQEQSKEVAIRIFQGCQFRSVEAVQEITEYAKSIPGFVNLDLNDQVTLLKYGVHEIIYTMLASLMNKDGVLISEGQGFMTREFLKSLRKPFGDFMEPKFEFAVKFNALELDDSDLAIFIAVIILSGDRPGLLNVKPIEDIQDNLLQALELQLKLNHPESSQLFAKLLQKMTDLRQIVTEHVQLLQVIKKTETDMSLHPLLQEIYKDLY
In kind it is cell-based, 293T. The conditions noted are these: read-out: EC50.

For data set [2], the system named is Mus musculus. Briefly: Upregulation of UCP3 expression in C57BL/6 mouse at 10 mg/kg, po qd relative to control. In kind it is functional.
Data set [3] deals with T2, Peroxisome proliferator-activated receptor delta (Homo sapiens, UniProt Q03181).
T2 sequence (Q03181 whole entry): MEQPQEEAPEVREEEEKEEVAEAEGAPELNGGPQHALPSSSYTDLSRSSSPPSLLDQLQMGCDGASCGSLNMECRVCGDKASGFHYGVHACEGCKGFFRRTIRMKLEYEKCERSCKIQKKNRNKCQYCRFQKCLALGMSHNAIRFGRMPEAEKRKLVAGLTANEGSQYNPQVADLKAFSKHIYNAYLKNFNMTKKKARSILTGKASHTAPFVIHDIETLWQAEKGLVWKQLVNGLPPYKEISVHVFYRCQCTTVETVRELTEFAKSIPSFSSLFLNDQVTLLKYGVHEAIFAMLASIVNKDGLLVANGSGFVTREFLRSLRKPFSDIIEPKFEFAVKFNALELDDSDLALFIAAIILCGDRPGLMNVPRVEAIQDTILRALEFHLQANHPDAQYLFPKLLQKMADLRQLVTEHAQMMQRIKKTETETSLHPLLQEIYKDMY

Data set [4] in a line: AUC ((0 to 24 hrs)) in Balb/c mouse at 10 mg/kg, po qd. The conditions noted are these: plasma.
Data set [5] can be described thus: Oral bioavailability in Balb/c mouse at 10 mg/kg daily. As to conditions: in vivo.
The target of data set [6] is T2, Peroxisome proliferator-activated receptor delta. This is another data set of the same source.
The nature of data set [7]: Half life in Balb/c mouse at 10 mg/kg, po qd. The conditions noted are these: in vivo.
The target in data set [8] is T3, Peroxisome proliferator-activated receptor alpha (Homo sapiens, UniProt Q07869).
T3 sequence (Q07869 whole entry): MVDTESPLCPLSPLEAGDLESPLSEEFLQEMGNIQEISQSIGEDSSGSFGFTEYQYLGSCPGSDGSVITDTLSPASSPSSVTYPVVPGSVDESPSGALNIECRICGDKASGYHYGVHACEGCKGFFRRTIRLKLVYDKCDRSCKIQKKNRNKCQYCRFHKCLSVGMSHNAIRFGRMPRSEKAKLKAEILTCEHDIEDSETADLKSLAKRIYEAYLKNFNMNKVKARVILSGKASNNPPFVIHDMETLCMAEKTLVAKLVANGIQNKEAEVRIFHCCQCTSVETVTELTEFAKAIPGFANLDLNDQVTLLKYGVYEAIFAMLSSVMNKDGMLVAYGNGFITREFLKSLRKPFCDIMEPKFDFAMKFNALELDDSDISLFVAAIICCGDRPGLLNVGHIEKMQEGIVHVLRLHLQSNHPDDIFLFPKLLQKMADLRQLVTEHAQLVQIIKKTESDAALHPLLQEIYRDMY
Briefly: Agonist activity at human PPARalpha ligand binding domain expressed in human 293T cells co-transfected with Gal4-DBD by luciferase transactivation assay. Type of data set: cell-based. As to conditions: read-out: EC50.

Data set [9] deals with Peroxisome proliferator-activated receptor delta (Homo sapiens) (UniProt Q03181). Briefly: Agonist activity at human PPARdelta by FRET assay.
Data set [10] in a line: Cmax in Balb/c mouse at 10 mg/kg, po qd. As to conditions: in vivo.
Data set [11] concerns Mus musculus. Briefly: Upregulation of PDK4 expression in C57BL/6 mouse at 10 mg/kg, po qd relative to control. Type of data set: functional.
Data set [12] addresses T4, Peroxisome proliferator-activated receptor alpha (Homo sapiens) (UniProt Q07869).
T4 sequence (whole entry): T3 sequence (Q07869 whole entry)
The data set can be described thus: Agonist activity at human PPARalpha ligand binding domain expressed in human 293T cells co-transfected with Gal4-DBD by luciferase transactivation assay relative to KRP297. Type of data set: cell-based.

For `COc1ccc(-c2nc(COc3ccc(OCC(=O)O)c(C)c3)oc2-c2ccc(OC(F)(F)F)cc2)cn1`, the EC50 in [1] is above 10 µM; in data set [3], 8 nM; in data set [6], 10 nM; in data set [8] it was above 10000 nM; in data set [9], 97 nM. In addition, the “fold change (FC)” value in the data set with Mus musculus [2] came out at 1.4; with Mus musculus [11], 1.2. In data set [4], this compound had an exposure (AUC) at 24 h of 96.8 µM·h. This compound also returned a bioavailability in data set [5] of 89%. The half-life in data set [7] was 150 min. Besides, the Cmax in data set [10] is 13700 nM.

`Cc1cc(OCc2nc(-c3ccc(OC4CCCC4)cc3)c(-c3ccc(OC(F)(F)F)cc3)s2)ccc1OCC(=O)O`: the EC50 was above 10 µM in data set [1]; 10 nM in data set [3]; 15 nM in data set [6]; above 10000 nM in data set [8]; 31 nM in [9]. Also, the “fold change (FC)” value with Mus musculus [2] is reported as 2.8; with Mus musculus [11], 1.9. This compound showed an AUC at 24 h in data set [4] of 16.1 µM·h. For the same compound, the bioavailability in [5] was found to be 19%. In [7], this compound showed a half-life of 456 min. In [10], this compound displayed a Cmax of 1200 nM.

For the compound `Cc1cc(OCc2nc(-c3ccc(N4CCOCC4)nc3)c(-c3ccc(OC(F)(F)F)cc3)o2)ccc1OCC(=O)O`, the EC50 stood at 2.49 µM in [1], 2 nM in data set [3], 1200 nM in [8] and 5 nM in data set [9]. For the same compound, in data set [4], the AUC at 24 h is 1.95 µM·h. The compound also yielded a bioavailability in data set [5] of 18%. In data set [12], this compound showed an Efficacy of 46%. Besides, the half-life in data set [7] is 228 min. This compound came in with a Cmax in [10] of 700 nM.

For the compound `Cc1cc(OCc2nc(-c3cccnc3)c(-c3ccc(-c4ccccc4)cc3)o2)ccc1OCC(=O)O`, the EC50 amounted to 8 nM in [3], 6 nM in data set [6] and 30 nM in data set [9]. This compound also came in with an AUC at 24 h in [4] of 0.814 µM·h. In data set [5], the bioavailability came out at 10%. This compound also had a half-life in data set [7] of 240 min. The peak concentration (Cmax) in data set [10] is 400 nM.

Regarding `Cc1cc(OCc2nc(-c3cnc(OC(C)C)nc3)c(-c3ccc(OC(F)(F)F)cc3)s2)ccc1OCC(=O)O`, the EC50 was above 10 µM in data set [1]; 6 nM in [3]; 14 nM in data set [6]; above 10000 nM in data set [8]; 10 nM in data set [9]. In addition, the “fold change (FC)” value with Mus musculus [2] was determined as 1.5; in the data set with Mus musculus [11], 1.6. In data set [4], this compound had an AUC at 24 h of 20.1 µM·h. This compound had a bioavailability in data set [5] of 88%. Further, in [7], the half-life is 138 min. In addition, in [10], the Cmax stood at 3500 nM.

Consider `Cc1cc(OCc2nc(-c3ccc(N4CCOCC4)cc3)c(-c3ccc(-c4ccccc4)cc3)s2)ccc1OCC(=O)O`, for which the entries for the “fold change (FC)” value in the data set on Mus musculus [2] and with Mus musculus [11] were 2.5 and 1.4, respectively. The EC50 came to 18 nM in data set [3], 14 nM in data set [6] and 72 nM in data set [9]. For the same compound, the AUC at 24 h in data set [4] was found to be 31.9 µM·h. In addition, in data set [5], the bioavailability was determined as 30%. Further, the half-life in data set [7] is 306 min. The compound also had a Cmax in [10] of 2700 nM.

Regarding `Cc1cc(OCc2nc(-c3ccc(OC(C)C)nc3)c(-c3ccc(OC(F)(F)F)cc3)s2)ccc1OCC(=O)O`, the EC50 in data set [1] is above 10 µM; in [3], 8 nM; in data set [6] it was 12 nM; in [8], above 10000 nM; in data set [9], 13 nM. Also, the “fold change (FC)” value in the data set with Mus musculus [2] is given as 2.9; in the data set on Mus musculus [11], 1.9. This compound also came in with an AUC at 24 h in data set [4] of 62.9 µM·h. The compound also showed a bioavailability in data set [5] of 72%. Also, the half-life in data set [7] is 648 min. In [10], the concentration peaked (Cmax) at 4700 nM.

In the case of `Cc1cc(OCc2nc(-c3ccc(OC(C)C)cc3)c(-c3ccc(C(F)(F)F)cc3)s2)ccc1OCC(=O)O`, the “fold change (FC)” value worked out at 1.7 in the data set with Mus musculus [2] and 1.1 with Mus musculus [11]. In addition, the EC50 in data set [3] is 11 nM; in data set [6], 16 nM; in [9], 20 nM. The AUC at 24 h in [4] was 37.3 µM·h. The bioavailability in data set [5] was found to be 70%. Further, in data set [7], the half-life is 234 min. In addition, in [10], the concentration peaked (Cmax) at 2800 nM.

`CCCc1ccc(-c2oc(COc3ccc(OCC(=O)O)c(C)c3)nc2-c2cnc(OC)nc2)cc1`: the “fold change (FC)” value with Mus musculus [2] amounted to 2.5; with Mus musculus [11], 2. Further, the EC50 in [3] was 9 nM; in data set [6], 10 nM; in data set [9], 30 nM. This compound showed an AUC at 24 h in data set [4] of 6.42 µM·h. The compound also came in with a bioavailability in data set [5] of 41%. Besides, in [7], the half-life is 162 min. In data set [10], this compound yielded a Cmax of 2200 nM.

Take `Cc1cc(OCc2nc(-c3ccc(OC(C)C)cc3)c(-c3ccc(-c4ccccc4)cc3)s2)ccc1OCC(=O)O`: the “fold change (FC)” value with Mus musculus [2] is given as 2.4; in the data set on Mus musculus [11] it was 1.5. The EC50 turned out to be 9 nM in data set [3], 10 nM in data set [6] and 29 nM in [9].

In the case of `CCCc1ccc(-c2sc(COc3ccc(OCC(=O)O)c(C)c3)nc2-c2ccc(OC(C)C)cc2)cc1`, the concentration giving a half-maximal response (EC50) in data set [3] worked out at 11 nM; in data set [6] it was 13 nM; in [9], 17 nM.

Take `Cc1cc(OCc2nc(-c3ccc(C(=O)N4CCCCC4)cc3)c(-c3ccc(OC(F)(F)F)cc3)s2)ccc1OCC(=O)O`: the EC50 is 1.56 µM in data set [1], 6 nM in data set [3] and 1590 nM in data set [8]. Also, in data set [12], the Efficacy was determined as 55%.

On to `Cc1cc(OCc2nc(-c3ccc(C(=O)N4CCCCC4)cc3)c(-c3ccc(OC(F)(F)F)cc3)o2)ccc1OCC(=O)O`, for which the EC50 was above 10 µM in [1], 18 nM in data set [3] and 1150 nM in [8]. This compound had an Efficacy in data set [12] of 43%.

`Cc1cc(SCc2sc(-c3ccc(C(F)(F)F)cc3)nc2C)ccc1OCC(=O)O` [GW501516]: the “fold change (FC)” value worked out at 3.2 in the data set on Mus musculus [2] and 2.5 with Mus musculus [11]. Further, the AUC at 24 h in data set [4] is 29.8 µM·h. The half-life in data set [7] is 264 min. The same compound yielded a Cmax in data set [10] of 3900 nM.

Consider `Cc1cc(OCc2nc(-c3cnc(N4CCOCC4)nc3)c(-c3ccc(OC(F)(F)F)cc3)s2)ccc1OCC(=O)O`, for which the EC50 in data set [1] is above 10 µM; in [3], 3 nM; in data set [8], 1990 nM. In addition, in [12], the Efficacy came out at 38%.

In the case of `Cc1cc(OCc2nc(-c3ccc(OC(C)C)cc3)c(-c3cccc(OC(F)(F)F)c3)s2)ccc1OCC(=O)O`, the “fold change (FC)” value in the data set with Mus musculus [2] is on record as 1.9; in the data set with Mus musculus [11], 1.7. Besides, the EC50 was 9 nM in data set [3], 16 nM in data set [6] and 46 nM in data set [9]. The AUC at 24 h in data set [4] was 20.3 µM·h. In addition, the bioavailability in [5] was 49%. In [7], this compound had a half-life of 192 min. Besides, in data set [10], the Cmax came to 2400 nM.

Regarding `Cc1cc(OCc2nc(-c3ccc(C(=O)N(C)C(C)C)cc3)c(-c3ccc(OC(F)(F)F)cc3)o2)ccc1OCC(=O)O`, the EC50 was determined as 0.6 µM in data set [1], 1 nM in data set [3] and 700 nM in data set [8]. In data set [12], this compound registered an Efficacy of 49%.

The values above are taken from ChEMBL document CHEMBL1153748 (J Med Chem, 2010).
